Legend:
Type in all cases: functional
SH-SY5Y [1] = assay: Effect on NOS2 mRNA expression in human SH-SY5Y cells at EC10 by qPCR method relative to beta-actin
SH-SY5Y [2] = assay: Effect on BCL2 mRNA expression in human SH-SY5Y cells at EC10 by qPCR method relative to beta-actin
SK-N-SH [3] = assay: Effect on IFNG mRNA expression in human SK-N-SH cells at EC10 by qPCR method relative to beta-actin
SH-SY5Y [4] = assay: Effect on EPHA1 mRNA expression in human SH-SY5Y cells at EC10 by qPCR method relative to beta-actin
SK-N-SH [5] = assay: Effect on TSHR mRNA expression in human SK-N-SH cells at EC10 by qPCR method relative to beta-actin
SH-SY5Y [6] = assay: Effect on AKT1 mRNA expression in human SH-SY5Y cells at EC10 by qPCR method relative to beta-actin
SH-SY5Y [7] = assay: Effect on MYC mRNA expression in human SH-SY5Y cells at EC10 by qPCR method relative to beta-actin
SK-N-SH [8] = assay: Effect on ICAM1 mRNA expression in human SK-N-SH cells at EC10 by qPCR method relative to beta-actin
SH-SY5Y [9] = assay: Effect on ADRB2 mRNA expression in human SH-SY5Y cells at EC10 by qPCR method relative to beta-actin
SH-SY5Y [10] = assay: Effect on PIK3CG mRNA expression in human SH-SY5Y cells at EC10 by qPCR method relative to beta-actin
U-118-MG [11] = assay: Effect on PIK3CG mRNA expression in human U118MG cells at EC10 by qPCR method relative to beta-actin
SK-N-SH [12] = assay: Effect on CYP19A1 mRNA expression in human SK-N-SH cells at EC10 by qPCR method relative to beta-actin
SH-SY5Y [13] = assay: Effect on STAT3 mRNA expression in human SH-SY5Y cells at EC10 by qPCR method relative to beta-actin
U-118-MG [14] = assay: Effect on EDNRA mRNA expression in human U118MG cells at EC10 by qPCR method relative to beta-actin
U-118-MG [15] = assay: Effect on FGF2 mRNA expression in human U118MG cells at EC10 by qPCR method relative to beta-actin
SH-SY5Y [16] = assay: Effect on IL2 mRNA expression in human SH-SY5Y cells at EC10 by qPCR method relative to beta-actin
SH-SY5Y [17] = assay: Effect on S1PR3 mRNA expression in human SH-SY5Y cells at EC10 by qPCR method relative to beta-actin
SH-SY5Y [18] = assay: Effect on VEGFA mRNA expression in human SH-SY5Y cells at EC10 by qPCR method relative to beta-actin
SK-N-SH [19] = assay: Effect on NOS2 mRNA expression in human SK-N-SH cells at EC10 by qPCR method relative to beta-actin
SK-N-SH [20] = assay: Effect on AGTR2 mRNA expression in human SK-N-SH cells at EC10 by qPCR method relative to beta-actin
SK-N-SH [21] = assay: Effect on GRM2 mRNA expression in human SK-N-SH cells at EC10 by qPCR method relative to beta-actin
U-118-MG [22] = assay: Effect on BCL2 mRNA expression in human U118MG cells at EC10 by qPCR method relative to beta-actin
SK-N-SH [23] = assay: Effect on CSF1 mRNA expression in human SK-N-SH cells at EC10 by qPCR method relative to beta-actin
SK-N-SH [24] = assay: Effect on ADRB2 mRNA expression in human SK-N-SH cells at EC10 by qPCR method relative to beta-actin
U-118-MG [25] = assay: Effect on IL18 mRNA expression in human U118MG cells at EC10 by qPCR method relative to beta-actin
SK-N-SH [26] = assay: Effect on S1PR3 mRNA expression in human SK-N-SH cells at EC10 by qPCR method relative to beta-actin
U-118-MG [27] = assay: Effect on CFLAR mRNA expression in human U118MG cells at EC10 by qPCR method relative to beta-actin
SH-SY5Y [28] = assay: Effect on IFNG mRNA expression in human SH-SY5Y cells at EC10 by qPCR method relative to beta-actin
U-118-MG [29] = assay: Effect on IL1B mRNA expression in human U118MG cells at EC10 by qPCR method relative to beta-actin
SH-SY5Y [30] = assay: Effect on COL1A1 mRNA expression in human SH-SY5Y cells at EC10 by qPCR method relative to beta-actin
U-118-MG [31] = assay: Effect on CXCL11 mRNA expression in human U118MG cells at EC10 by qPCR method relative to beta-actin
SK-N-SH [32] = assay: Effect on COL1A1 mRNA expression in human SK-N-SH cells at EC10 by qPCR method relative to beta-actin
SK-N-SH [33] = assay: Effect on FGF2 mRNA expression in human SK-N-SH cells at EC10 by qPCR method relative to beta-actin
SK-N-SH [34] = assay: Effect on GRM1 mRNA expression in human SK-N-SH cells at EC10 by qPCR method relative to beta-actin
SK-N-SH [35] = assay: Effect on STAT3 mRNA expression in human SK-N-SH cells at EC10 by qPCR method relative to beta-actin
SK-N-SH [36] = assay: Effect on MAL mRNA expression in human SK-N-SH cells at EC10 by qPCR method relative to beta-actin
U-118-MG [37] = assay: Effect on CCL2 mRNA expression in human U118MG cells at EC10 by qPCR method relative to beta-actin
U-118-MG [38] = assay: Effect on CXCL10 mRNA expression in human U118MG cells at EC10 by qPCR method relative to beta-actin
SK-N-SH [39] = assay: Effect on MAG mRNA expression in human SK-N-SH cells at EC10 by qPCR method relative to beta-actin
U-118-MG [40] = assay: Effect on HIF1A mRNA expression in human U118MG cells at EC10 by qPCR method relative to beta-actin
U-118-MG [41] = assay: Effect on MAG mRNA expression in human U118MG cells at EC10 by qPCR method relative to beta-actin
SH-SY5Y [42] = assay: Effect on AGT mRNA expression in human SH-SY5Y cells at EC10 by qPCR method relative to beta-actin
SK-N-SH [43] = assay: Effect on TNFRSF1B mRNA expression in human SK-N-SH cells at EC10 by qPCR method relative to beta-actin
SH-SY5Y [44] = assay: Effect on HLA-DRB1 mRNA expression in human SH-SY5Y cells at EC10 by qPCR method relative to beta-actin

CCCCCCCCn1nnnc1CCC(N)(CO)CO.Cl
fold change (FC) (SH-SY5Y [1]): -4.7071 | fold change (FC) (SH-SY5Y [2]): -4.8227 | fold change (FC) (SK-N-SH [3]): -3.6601 | fold change (FC) (SH-SY5Y [4]): -6.2326 | fold change (FC) (SK-N-SH [5]): 5.2621 | fold change (FC) (SH-SY5Y [6]): -4.1766 | fold change (FC) (SH-SY5Y [7]): -5.0669 | fold change (FC) (SK-N-SH [8]): -9.5591 | fold change (FC) (SH-SY5Y [9]): -4.5291 | fold change (FC) (SH-SY5Y [10]): -3.5167 | fold change (FC) (U-118-MG [11]): -4.5938 | fold change (FC) (SK-N-SH [12]): -5.5959 | fold change (FC) (SH-SY5Y [13]): -2.8938 | fold change (FC) (U-118-MG [14]): 4.4344 | fold change (FC) (U-118-MG [15]): -4.6964 | fold change (FC) (SH-SY5Y [16]): -3.9071 | fold change (FC) (SH-SY5Y [17]): -2.5755 | fold change (FC) (SH-SY5Y [18]): -6.1896 | fold change (FC) (SK-N-SH [19]): -5.1582 | fold change (FC) (SK-N-SH [20]): 9.0827 | fold change (FC) (SK-N-SH [21]): -5.1941 | fold change (FC) (U-118-MG [22]): -4.6127 | fold change (FC) (SK-N-SH [23]): -3.004 | fold change (FC) (SK-N-SH [24]): -4.3526 | fold change (FC) (U-118-MG [25]): -3.772 | fold change (FC) (SK-N-SH [26]): -4.0052 | fold change (FC) (U-118-MG [27]): -2.9826 | fold change (FC) (SH-SY5Y [28]): -2.7247 | fold change (FC) (U-118-MG [29]): -3.0275 | fold change (FC) (SH-SY5Y [30]): -4.939 | fold change (FC) (U-118-MG [31]): -2.9665 | fold change (FC) (SK-N-SH [32]): -3.842 | fold change (FC) (SK-N-SH [33]): -6.7243 | fold change (FC) (SK-N-SH [34]): -5.0346 | fold change (FC) (SK-N-SH [35]): -5.0696

CCCCCCCCc1ccc(CCC(N)(CO)CO)cc1 [FINGOLIMOD]
fold change (FC) (SH-SY5Y [1]): -3.9518 | fold change (FC) (SH-SY5Y [2]): -4.2945 | fold change (FC) (SK-N-SH [3]): -6.428 | fold change (FC) (SH-SY5Y [4]): -6.442 | fold change (FC) (SK-N-SH [5]): -4.4134 | fold change (FC) (SH-SY5Y [6]): -9.4316 | fold change (FC) (SH-SY5Y [7]): -4.508 | fold change (FC) (SK-N-SH [8]): -4.0965 | fold change (FC) (SH-SY5Y [9]): -11.1967 | fold change (FC) (SH-SY5Y [10]): -5.6081 | fold change (FC) (U-118-MG [11]): -3.7491 | fold change (FC) (SK-N-SH [12]): -7.2069 | fold change (FC) (SK-N-SH [36]): -4.2778 | fold change (FC) (SH-SY5Y [13]): -5.5022 | fold change (FC) (U-118-MG [37]): -5.2826 | fold change (FC) (U-118-MG [14]): 3.242 | fold change (FC) (U-118-MG [15]): -4.2052 | fold change (FC) (U-118-MG [38]): -8.4782 | fold change (FC) (SH-SY5Y [18]): -4.3696 | fold change (FC) (SK-N-SH [39]): 3.5508 | fold change (FC) (SK-N-SH [19]): -5.9976 | fold change (FC) (SK-N-SH [20]): 3.8122 | fold change (FC) (U-118-MG [40]): -3.2716 | fold change (FC) (U-118-MG [22]): -4.7035 | fold change (FC) (SK-N-SH [23]): -7.7644 | fold change (FC) (SK-N-SH [24]): -6.7945 | fold change (FC) (U-118-MG [41]): 4.0174 | fold change (FC) (U-118-MG [27]): -3.53 | fold change (FC) (SH-SY5Y [28]): -5.1964 | fold change (FC) (U-118-MG [29]): -4.3432 | fold change (FC) (SH-SY5Y [30]): -5.0806 | fold change (FC) (SK-N-SH [32]): -3.7305 | fold change (FC) (SK-N-SH [33]): -7.3456 | fold change (FC) (SK-N-SH [34]): -4.8631 | fold change (FC) (SH-SY5Y [42]): 3.9041 | fold change (FC) (SK-N-SH [35]): -8.0243

CCCCCCCCn1nnnc1-c1ccc(C(O)CC(N)(CO)CO)cc1.Cl (stereo unspecified)
fold change (FC) (SK-N-SH [43]): -5.5404 | fold change (FC) (U-118-MG [37]): -5.2393 | fold change (FC) (SH-SY5Y [16]): -4.4248 | fold change (FC) (U-118-MG [38]): -4.8547 | fold change (FC) (SH-SY5Y [17]): -3.7208 | fold change (FC) (SK-N-SH [39]): 3.9862 | fold change (FC) (U-118-MG [41]): 3.7859 | fold change (FC) (SK-N-SH [26]): -4.5159 | fold change (FC) (U-118-MG [31]): -4.2262 | fold change (FC) (SH-SY5Y [44]): -2.5613

— ChEMBL document CHEMBL3872249, “Computer design, synthesis, and bioactivity analyses of drugs like fingolimod used in the treatment of multiple sclerosis” (Bioorg Med Chem, 2017)
